Read-outs that look alike come from different tables or passages of the source.
Columns and labels:
[1] = tested on: Rats; conditions: rat, in vivo
[2] = tested on: brewers' yeast-induced hyperthermia; assay: antipyretic activity, brewers' yeast-induced hyperthermia; type: in vivo, albino male Wistar rats
Experimental: The animals were caged under the same conditions as those described in the preceding tests. Five hours following […], determined by a rectal probe connected to a YSI thermometer (73 ATP model, Yellow Springs Instrument Company) were selected for the experiment. The animals were then randomized into groups of 10 and the compounds under examination and the vehicle were administered via the oral and parenteral routes testing each dose in two groups. Body temperature was determined at one, two and three hours after administration of the substances. […]

[3] = tested on: carrageenin-induced oedema; assay: carrageenin-induced oedema test (anti-inflammatory activity); type: in vivo, albino male Wistar rats
Experimental: This effect was evaluated by means of an experimental model reproducing acute inflammation: for this purpose the carrageenin- induced oedema test was employed following the method described by C.
Albino male Wistar rats weighing 140-160 g were caged for 10 days at 22±1° C. and given a balanced diet and water ad libitum. Eighteen hours before the experiment the animals were randomized into groups of ten and fasted but with free access to water. Each dose was tested in three groups of rats. Each compound was given either orally, by gavage, or parenterally--intraperitoneal injection--administering as follows:
controls: 0.5% carboxymethylcellulose suspension in physiological saline, 10 ml/kg
treated: suspension of the compounds to be tested in the same vehicle and at the same volume (10 ml/kg) used for the controls at the doses specified below.
One hour after administration of the compounds and vehicle, in order to provoke the oedema for determining the protective effect of the substances under examination, each rat received, by subcutaneous injection into the plantar surface of the left paw, 0.1 ml of 1% sterile carrageenin suspension.

[4] = tested on: Mice; conditions: mouse, in vivo
[5] = tested on: phenyl-p-quinone-induced writhing (abdominal contractions); assay: phenylquinone-induced writhing test (analgesic activity), compound given 30 min before phenyl-p-quinone; type: in vivo, male Wistar rats
Experimental: Male Wistar rats weighing 110±5 g were caged for 10 days at 22±1° C. and given a balanced diet with free access to water. Twenty-four hours before the experiment the animals were randomized into groups of 10 and fasted for 14 hours but with free access to water. Each dose was tested in 3 groups of rats. Thirty minutes following administration either orally or parenterally of the products to be tested and the vehicle alone (0.5% carboxymethyl-cellulose in physiological saline) in the control animals, each rat was given 2 ml of a 5% absolute ethanol aqueous solution containing 0.36% of phenyl-p-quinone (Sigma Chemical Company) in order to provoke writhings. Fifteen minutes after administration of phenyl-p-quinone the number of contractions were counted for 20 minutes. The inhibiting effect of the compounds under examination on the abdominal contractions induced by phenyl-p-quinone was calculated by the following formula: % protection= [formula]
Table V lists the tested compounds, doses, routes of administration and their efficacy expressed as percentage of protection, taking into account that phenyl-p-quinone was administered thirty minutes after the compounds.

[6] = tested on: gastric lesions; type: in vivo, male Wistar rats; conditions: 4 consecutive days; for mean severity: scale 0 (no lesion) to 5 (perforations)
Experimental: Male Wistar rats weighing 180 g were randomized into groups of 10. Three doses of each compound were administered. One group received the vehicle alone (10 ml/kg b.w.). Each dose was given orally for four days consecutively and the rats were sacrificed on the fifth day for necropsy. The ulcerogenic effect was evaluated by the following scale:
(1) each haemorrhagic point at least 1 mm in diameter was scored as 1 lesion,
(2) haemorrhagic points less than 1 mm in diameter were scored in the following manner:
(c) 20 to 29=three lesions
By means of this scale it was possible to obtain the gastric damage index:
I=mean no. of lesions+mean of severity+% incidence/10

Cc1ccc(C(=O)c2ccc(CC(=O)NNCC(=O)N3CCN(C)CC3)n2C)cc1 [Compound 1-o, 1-methyl-5-p-toluoylpyrrole-2-acetic acid-2 [N-(4-methyl-1-piperazinyl)acetamide] hydrazide]
LD50 ([1]; ip): 700 mg/kg | LD50 ([1]; po): 978 mg/kg | % Temperature decrease ([2]; 50 mg/Kg i.p., 1 h): 13.0% | % Temperature decrease ([2]; 50 mg/Kg i.p., 2 h): 27.5% | % Temperature decrease ([2]; 50 mg/Kg i.p., 3 h): 39.6% | % Temperature decrease ([2]; 50 mg/Kg per os, 1 h): 12.0% | % Temperature decrease ([2]; 50 mg/Kg per os, 2 h): 23.1% | % Temperature decrease ([2]; 50 mg/Kg per os, 3 h): 35.2% | % Temperature decrease ([2]; 75 mg/Kg i.p., 1 h): 18.0% | % Temperature decrease ([2]; 75 mg/Kg i.p., 2 h): 27.0% | % Temperature decrease ([2]; 75 mg/Kg i.p., 3 h): 49.6% | % Temperature decrease ([2]; 75 mg/Kg per os, 1 h): 16.0% | % Temperature decrease ([2]; 75 mg/Kg per os, 2 h): 25.2% | % Temperature decrease ([2]; 75 mg/Kg per os, 3 h): 40.2% | % Temperature decrease ([2]; 100 mg/Kg i.p., 1 h): 30.1% | % Temperature decrease ([2]; 100 mg/Kg i.p., 2 h): 45.0% | % Temperature decrease ([2]; 100 mg/Kg i.p., 3 h): 62.1% | % Temperature decrease ([2]; 100 mg/Kg per os, 1 h): 29.1% | % Temperature decrease ([2]; 100 mg/Kg per os, 2 h): 33.7% | % Temperature decrease ([2]; 100 mg/Kg per os, 3 h): 59.0% | oedema % inhibition ([3]; 25 mg/Kg per os, 2 h): 37.1% | oedema % inhibition ([3]; 25 mg/Kg per os, 4 h): 42.0% | oedema % inhibition ([3]; 25 mg/Kg per os, 6 h): 44.0% | oedema % inhibition ([3]; 25 mg/Kg per os, 24 h): 12.1% | oedema % inhibition ([3]; 25 mg/Kg per os, 48 h): 0.0% | oedema % inhibition ([3]; 25 mg/Kg per os, 72 h): 0.0% | oedema % inhibition ([3]; 25 mg/Kg, Table IV (route not given), 2 h): 39.0% | oedema % inhibition ([3]; 25 mg/Kg, Table IV (route not given), 4 h): 37.1% | oedema % inhibition ([3]; 25 mg/Kg, Table IV (route not given), 6 h): 36.0% | oedema % inhibition ([3]; 25 mg/Kg, Table IV (route not given), 24 h): 11.1% | oedema % inhibition ([3]; 25 mg/Kg, Table IV (route not given), 48 h): 0.0% | oedema % inhibition ([3]; 25 mg/Kg, Table IV (route not given), 72 h): 0.0% | oedema % inhibition ([3]; 50 mg/Kg per os, 2 h): 49.2% | oedema % inhibition ([3]; 50 mg/Kg per os, 4 h): 50.1% | oedema % inhibition ([3]; 50 mg/Kg per os, 6 h): 50.0% | oedema % inhibition ([3]; 50 mg/Kg per os, 24 h): 22.1% | oedema % inhibition ([3]; 50 mg/Kg per os, 48 h): 4.5% | oedema % inhibition ([3]; 50 mg/Kg per os, 72 h): 0.0% | oedema % inhibition ([3]; 50 mg/Kg, Table IV (route not given), 2 h): 52.1% | oedema % inhibition ([3]; 50 mg/Kg, Table IV (route not given), 4 h): 55.0% | oedema % inhibition ([3]; 50 mg/Kg, Table IV (route not given), 6 h): 43.0% | oedema % inhibition ([3]; 50 mg/Kg, Table IV (route not given), 24 h): 17.9% | oedema % inhibition ([3]; 50 mg/Kg, Table IV (route not given), 48 h): 0.0% | oedema % inhibition ([3]; 50 mg/Kg, Table IV (route not given), 72 h): 0.0% | oedema % inhibition ([3]; 100 mg/Kg per os, 2 h): 70.1% | oedema % inhibition ([3]; 100 mg/Kg per os, 4 h): 73.4% | oedema % inhibition ([3]; 100 mg/Kg per os, 6 h): 77.5% | oedema % inhibition ([3]; 100 mg/Kg per os, 24 h): 33.5% | oedema % inhibition ([3]; 100 mg/Kg per os, 48 h): 8.6% | oedema % inhibition ([3]; 100 mg/Kg per os, 72 h): 0.0% | oedema % inhibition ([3]; 100 mg/Kg, Table IV (route not given), 2 h): 79.1% | oedema % inhibition ([3]; 100 mg/Kg, Table IV (route not given), 4 h): 78.0% | oedema % inhibition ([3]; 100 mg/Kg, Table IV (route not given), 6 h): 77.3% | oedema % inhibition ([3]; 100 mg/Kg, Table IV (route not given), 24 h): 24.1% | oedema % inhibition ([3]; 100 mg/Kg, Table IV (route not given), 48 h): 0.0% | oedema % inhibition ([3]; 100 mg/Kg, Table IV (route not given), 72 h): 0.0% | LD50 ([4]; ip): 590 mg/kg | LD50 ([4]; po): 910 mg/kg | % Protection ([5]; 5 mg/Kg i.p.): 35.1% | % Protection ([5]; 5 mg/Kg per os): 29.3% | % Protection ([5]; 10 mg/Kg i.p.): 63.9% | % Protection ([5]; 10 mg/Kg per os): 60.4% | % Protection ([5]; 20 mg/Kg i.p.): 87.0% | % Protection ([5]; 20 mg/Kg per os): 86.2% | mean no. of lesions ([6]; 50 mg/Kg orally): 1 | gastric damage index ([6]; 50 mg/Kg orally, I=mean no. of lesions+mean of severity+% incidence/10): 9 | mean severity ([6]; 50 mg/Kg orally): 1 | mean no. of lesions ([6]; 100 mg/Kg orally): 2 | mean severity ([6]; 100 mg/Kg orally): 1 | mean no. of lesions ([6]; 200 mg/Kg orally): 2

From US4882349A, “Pyrrolacetic amides having antiinflammatory activity” (priority 1982, dated 1989)
